What was measured:
[1] = Membrane affinity logMA (MA-Transil); type: physicochemical; settings: buffer pH 7.4
[2] = system: human ACC1; assay: Human ACC1 enzyme assay (ADP-Glo); type: biochemical
[3] = Maximum tolerated dose (MTD) in the mouse; type: in vivo; settings: for Deaths: 21 days; for MTD at 21 days: female, NMRI-nude (nu/nu), mouse, in vivo, oral, 21-day treatment
Method: The MTD was defined as the highest dose which could be administered without any animal dying during the treatment phase, and without any body weight loss of more than 10% compared to the initial weight.
Example 1-1 was administered to female nude mice (NMRI nu/nu):
The treatment phase was followed by an observation phase of 21 days.

[4] = system: PC-3 prostate carcinoma xenograft; assay: PC-3 prostate carcinoma xenograft model in the mouse; settings: for T/C: 17 days, 2 administrations per day
Method: (§1) Xenograft models in immunosuppressed mice were used to determine the antitumour activity in living organisms.
(§2) Use was made primarily of a prostate carcinoma model with hormone-independent human PC-3 cells in male nude mice (NMRI-nude (nu/nu) mice, Taconic M&B A/S). To this end, 3 million tumour cells (suspended in medium+Matrigel) 1:1, final 0.1 ml) were injected subcutaneously into the side of each animal. When the tumours extended to an area of 20-30 mm^2., the mice were randomized into therapy groups and therapy was initiated. […] At this point in time, the experiment was terminated in all groups and the prepared tumours were weighed. The T/C value was calculated as primary success parameter using the effect on the final tumour weight: mean tumour weight in the treatment group divided by mean of the tumour weight in the vehicle group.
(§3) Administration route: per os Vehicle: PEG400/ethanol/Solutol HS 15 (70/5/25, v/v/v) Administration volume: 10 ml/kg

[5] = as above; settings: male, NMRI-nude (nu/nu), mouse, in vivo, po
Method: as §1, §2, §3

[6] = Plasma protein binding by equilibrium dialysis, rat; type: in vitro ADME; settings: read-out: fu (rat)
Method: The binding of test substances to plasma proteins is determined by equilibrium dialysis by means of the Ht-dialysis apparatus (96-well) made of Teflon and a semipermeable membrane (regenerated cellulose, MWCO 12-14K). This separates 150 μl each of a plasma side and a buffer side (50 mM phosphate buffer). The test substance is added in 2 concentrations (usually 3 and 0.3 μM) to the plasma side and binds to plasma proteins. The unbound fraction of the test substance passes through the membrane and is distributed on either side until equilibrium is established (after approx. 6-8 h at 37° C.). The substance concentration on the buffer side and the plasma side is determined by LC-MS analysis. For this, both sides are brought by dilution with buffer or plasma to the same matrix (10% plasma) and then precipitated with methanol. The free (unbound) fraction (fu) is calculated from the quotient of the buffer and plasma concentration. Stability tests and recovery tests are run concurrently as controls. In addition, the substance in buffer is dialysed against buffer, to check the nonspecific binding to apparatus and membrane and establishment of equilibrium. Because during incubation the osmotic pressure of the plasma proteins leads to dilution of the plasma (volume shift), this possible error is determined by weighing blank plasma samples and is included in the calculation of fu. Establishment of equilibrium and plasma stability should have a value not lower than 80% and the recovery should be at least 30%. A free fraction of <1% is regarded as high, between 1 and 10% as moderate and >10% as low plasma protein binding.

Structure (SMILES)	logMA [1]	Selectivity ACC1 vs. ACC2 (mean of the individual measurements ± standard deviation) [2]	melting point [°C]	Deaths ([3]; 12.5 mg/kg per os, 1 administration per day)	Deaths ([3]; 25 mg/kg per os, 1 administration per day)	Deaths ([3]; 50 mg/kg per os, 1 administration per day)	Deaths ([3]; 50 mg/kg per os, 2 administrations per day)	Deaths ([3]; 75 mg/kg per os, 1 administration per day)	Deaths ([3]; 100 mg/kg per os, 1 administration per day)	MTD at 21 days ([3]; 50 mg/kg, administration twice per day) [mg/kg]	MTD at 21 days ([3]; administration once per day) [mg/kg]	T/C ([4]; 40 mg/kg per os)	T/C ([4]; 80 mg/kg day 1-3, 70 mg/kg from day 4 onwards, per os)	Reduction in body weight in individual animals ([4]; 80 mg/kg, 2 times per day, after 3 days)	AUC ([5]; 40 mg/kg) [µg·h/mL]	AUC ([5]; 80 mg/kg) [µg·h/mL]	fraction unbound [6]
Cc1ccc(-c2ccc(Cl)cc2)cc1C1=C(O)C2(CCC(F)(F)CC2)NC1=O [Example 1-2, 3-(4′-Chloro-4-methylbiphenyl-3-yl)-8,8-difluoro-4-hydroxy-1-azaspiro[4.5]dec-3-en-2-one]	1.83 (1.7-1.9, n = 3)	13.4 ± 4.5	105														
Cc1ccc(-c2ccc(Cl)c(F)c2)cc1C1=C(O)C2(CCC(F)(F)CC2)NC1=O [Example 1-1, 3-(4′-Chloro-3′-fluoro-4-methylbiphenyl-3-yl)-8,8-difluoro-4-hydroxy-1-azaspiro[4.5]dec-3-en-2-one]				0 of 4	0 of 4	0 of 4	0 of 4	0 of 4	0 of 4	> 50	> 100	0.26	0.26	more than 10%	376	6080	0.0027

Source: US20140011853A1, “SUBSTITUTED 3-(BIPHENYL-3-YL)-8,8-DIFLUORO-4-HYDROXY-1-AZASPIRO[4.5]DEC-3-EN-2-ONES FOR THERAPY” (BAYER INTELLECTUAL PROPERTY GMBH, priority 2011, published 2014)
